We go through 22 compounds from patent US12595230B2, “Substituted 6,7-dihydro-5H-benzo[7]annulene compounds and their derivatives, processes for their preparation and therapeutic uses thereof” (Sanofi, priority 2020, dated 2026).

pIC50: −log10 of the molar value.

For the assay, the target named is T1, ERα (Homo sapiens, UniProt P03372).
T1 construct: host or cells: MCF7
T1 sequence (P03372 1-595): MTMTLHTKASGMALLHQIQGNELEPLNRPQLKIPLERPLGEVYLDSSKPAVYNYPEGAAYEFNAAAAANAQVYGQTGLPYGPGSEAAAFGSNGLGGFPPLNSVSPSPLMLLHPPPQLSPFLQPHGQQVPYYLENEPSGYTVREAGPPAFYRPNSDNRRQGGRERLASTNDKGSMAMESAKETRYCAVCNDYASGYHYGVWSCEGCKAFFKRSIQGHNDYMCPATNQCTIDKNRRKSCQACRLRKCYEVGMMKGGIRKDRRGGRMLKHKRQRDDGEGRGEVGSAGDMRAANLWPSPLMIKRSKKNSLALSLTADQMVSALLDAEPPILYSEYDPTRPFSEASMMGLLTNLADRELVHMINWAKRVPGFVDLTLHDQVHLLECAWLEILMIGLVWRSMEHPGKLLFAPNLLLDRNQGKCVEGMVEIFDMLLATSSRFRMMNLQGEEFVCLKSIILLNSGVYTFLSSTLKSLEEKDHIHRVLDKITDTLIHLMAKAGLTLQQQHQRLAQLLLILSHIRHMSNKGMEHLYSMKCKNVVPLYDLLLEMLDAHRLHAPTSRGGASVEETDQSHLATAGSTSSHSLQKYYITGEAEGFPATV
The experiment in a line: Estrogen receptor degradation activity: breast cancer cell ERα in cell western assay (MCF7 cells). Type of assay: cell-based. Conditions: for % Degradation At 0.3 μM: 4 hours, relative to fulvestrant 0.1 μM positive control; for DC50: read-out: Degradation IC50. The gist of the method: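 Compounds were applied to MCF7 cells in stripped-serum, phenol red-free medium for 4 h at final 0.3–0.0000018 μM, with fulvestrant (0.1 μM) as control. Value: IC50 (nM) for 50% ERα degradation.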

The mark [1] stands for this setting: 4 hours post compound addition, concentration which degrades 50% of the estrogen receptor.

Take `Cc1c(Cl)cccc1C1=C(c2ccc(CC3CN(CCC(F)F)C3)cc2)c2ccc(C(=O)O)cc2CCC1` [Example 293, 8-(3-chloro-2-methylphenyl)-9-(4-((1-(3,3-difluoropropyl)azetidin-3-yl)methyl)phenyl)-6,7-dihydro-5H-benzo[7]annulene-3-carboxylic acid]: the “% Degradation At 0.3 μM” value stood at 86%. Moreover, the DC50 under setting [1] stood at 600 pM.
For `O=C(O)c1ccc2c(c1)CCCC(c1ccc(Cl)cc1C(F)F)=C2c1ccc(CC2CN(CCCF)C2)cc1` [Example 221, 8-(4-chloro-2-(difluoromethyl)phenyl)-9-(4-((1-(3-fluoropropyl)azetidin-3-yl)methyl)phenyl)-6,7-dihydro-5H-benzo[7]annulene-3-carboxylic acid], the “% Degradation At 0.3 μM” value stood at 91%. Besides, the DC50 under setting [1] amounted to 200 pM.
In the case of `CCC1CCc2cc(C(=O)O)ccc2C(c2ccc(CC3CN(CCCF)C3)cc2)=C1c1ccc(Cl)cc1` (racemic) [Example 315, 8-(4-chlorophenyl)-7-ethyl-9-(4-((1-(3-fluoropropyl)azetidin-3-yl)methyl)phenyl)-6,7-dihydro-5H-benzo[7]annulene-3-carboxylic acid], the “% Degradation At 0.3 μM” value came out at 87%. Further, the DC50 under setting [1] was 1000 pM.
Consider `O=C([O-])c1ccc2c(c1)CCCC(c1cc(C(F)F)ccc1F)=C2c1ccc(CC2CN(CCCF)C2)cc1.[Na+]` [Example 273, sodium 8-(5-(difluoromethyl)-2-fluorophenyl)-9-(4-((1-(3-fluoropropyl)azetidin-3-yl)methyl)phenyl)-6,7-dihydro-5H-benzo[7]annulene-3-carboxylate], for which the “% Degradation At 0.3 μM” value amounted to 89%. The DC50 under setting [1] stood at 600 pM.
The corresponding values for `O=C(O)c1ccc2c(c1)CCCC(c1cccc(C(F)(F)F)c1Cl)=C2c1ccc(CC2CN(CCC(F)F)C2)cc1` [Example 286, 8-(2-chloro-3-(trifluoromethyl)phenyl)-9-(4-((1-(3,3-difluoropropyl)azetidin-3-yl)methyl)phenyl)-6,7-dihydro-5H-benzo[7]annulene-3-carboxylic acid] are 88% and 300 pM.
For `CC(C)C1CCc2cc(C(=O)O)ccc2C(c2ccc(CC3CN(CCCF)C3)cc2)=C1c1ccc(Cl)cc1` (racemic) [Example 317, 8-(4-chlorophenyl)-9-(4-((1-(3-fluoropropyl)azetidin-3-yl)methyl)phenyl)-7-isopropyl-6,7-dihydro-5H-benzo[7]annulene-3-carboxylic acid] the same measures were 87% and 1600 pM.
As to `O=C(O)c1ccc2c(c1)CCCC(c1cccc(F)c1C(F)(F)F)=C2c1ccc(CC2CN(CCC(F)F)C2)cc1` [Example 278, 9-(4-((1-(3,3-difluoropropyl)azetidin-3-yl)methyl)phenyl)-8-(3-fluoro-2-(trifluoromethyl)phenyl)-6,7-dihydro-5H-benzo[7]annulene-3-carboxylic acid], the “% Degradation At 0.3 μM” value is 84%. Besides, the pIC50 (in general, the IC50 on a negative log10 scale, so that one unit is a factor of ten) under setting [1] is 9.70.
On to `NC(c1ccc(C2=C(c3ccc(Cl)cc3Cl)CCCc3cc(C(=O)O)ccc32)cc1)C1CN(CCCF)C1` (single isomer, unassigned; isomer 2) [Example 244, 9-(4-(Amino(1-(3-fluoropropyl)azetidin-3-yl)methyl)phenyl)-8-(2,4-dichlorophenyl)-6,7-dihydro-5H-benzo[7]annulene-3-carboxylic Acid Isomer 2], for which the “% Degradation At 0.3 μM” value stood at 86%. Moreover, under setting [1], the DC50 stood at 13600 pM.
For `O=C(O)c1ccc2c(c1)CCCC(c1cccc(Cl)c1C(F)(F)F)=C2c1ccc(CC2CN(CCC(F)(F)F)C2)cc1` [Example 259, 8-(3-chloro-2-(trifluoromethyl)phenyl)-9-(4-((1-(3,3,3-trifluoropropyl)azetidin-3-yl)methyl)phenyl)-6,7-dihydro-5H-benzo[7]annulene-3-carboxylic acid], the “% Degradation At 0.3 μM” value was 87%. Under setting [1], the DC50 is 400 pM.
Turning to `O=C(O)c1ccc2c(c1)CCCC(c1ccc(F)c(F)c1)=C2c1ccc(CC2CN(CCCF)C2)cc1` [Example 45, 8-(3,4-difluorophenyl)-9-(4-((1-(3-fluoropropyl)azetidin-3-yl)methyl)phenyl)-6,7-dihydro-5H-benzo[7]annulene-3-carboxylic acid], the “% Degradation At 0.3 μM” value is 86%. For the same compound, the DC50 under setting [1] stood at 300 pM.
With `O=C([O-])c1ccc2c(c1)OCCC(c1ccc(F)cc1Cl)=C2c1ccc(CC2CN(CCCF)C2)cc1.[Na+]` [Example 264, sodium 4-(2-chloro-4-fluorophenyl)-5-(4-((1-(3-fluoropropyl)azetidin-3-yl)methyl)phenyl)-2,3-dihydrobenzo[b]oxepine-8-carboxylate], the “% Degradation At 0.3 μM” value came out at 95%. Also, the DC50 under setting [1] is 1100 pM.
For `O=C(O)c1ccc2c(c1)CCCC(c1cccc(CC(F)F)c1)=C2c1ccc(CC2CN(CCCF)C2)cc1` [Example 297, 8-(3-(2,2-difluoroethyl)phenyl)-9-(4-((1-(3-fluoropropyl)azetidin-3-yl)methyl)phenyl)-6,7-dihydro-5H-benzo[7]annulene-3-carboxylic acid] the same measures were 81% and 700 pM.
For `COc1ncc(C2=C(c3ccc(CC4CN(CCCF)C4)cc3)c3ccc(C(=O)O)cc3CCC2)cc1C(F)(F)F` [Example 306, 9-(4-((1-(3-fluoropropyl)azetidin-3-yl)methyl)phenyl)-8-(6-methoxy-5-(trifluoromethyl)pyridin-3-yl)-6,7-dihydro-5H-benzo[7]annulene-3-carboxylic acid] the same measures were 82% and 25800 pM.
The corresponding values for `COc1cc(C2=C(c3ccc(CC4CN(CCCF)C4)cc3)c3ccc(C(=O)O)cc3CCC2)ccn1` [Example 21, 9-(4-((1-(3-fluoropropyl)azetidin-3-yl)methyl)phenyl)-8-(2-methoxypyridin-4-yl)-6,7-dihydro-5H-benzo[7]annulene-3-carboxylic acid] are 89% and 2100 pM.
With `Cl.O=C(O)c1ccc2c(c1)CCCC(c1ccc(Cl)cc1F)=C2c1ccc(CC2CN(CCCF)C2)cc1` [Example 12, 8-(4-chloro-2-fluorophenyl)-9-(4-((1-(3-fluoropropyl)azetidin-3-yl)methyl)phenyl)-6,7-dihydro-5H-benzo[7]annulene-3-carboxylic acid], the “% Degradation At 0.3 μM” value is listed as 93%. The DC50 under setting [1] is 400 pM.
For `O=C(O)c1ccc2c(c1)CCCC(c1ccc(Cl)cc1Cl)=C2c1ccc(CC2(O)CN(CCCF)C2)cc1` [Example 233, 8-(2,4-dichlorophenyl)-9-(4-((1-(3-fluoropropyl)-3-hydroxyazetidin-3-yl)methyl)phenyl)-6,7-dihydro-5H-benzo[7]annulene-3-carboxylic acid] the same measures were 85% and 500 pM.
The corresponding values for `Oc1c(F)cc2c(c1F)CCCC(c1ccc(Cl)cc1Cl)=C2c1ccc(CC2CN(CCCF)C2)cc1` [Example 305, 8-(2,4-dichlorophenyl)-2,4-difluoro-9-(4-((1-(3-fluoropropyl)azetidin-3-yl)methyl)phenyl)-6,7-dihydro-5H-benzo[7]annulen-3-ol] are 85% and 1200 pM.
For `CCC1CCc2cc(C(=O)O)ccc2C(c2ccc(CC3CN(CCCF)C3)cc2)=C1c1ccc(Cl)cc1` (single isomer, unassigned) [Example 330, 8-(4-chlorophenyl)-7-ethyl-9-(4-((1-(3-fluoropropyl)azetidin-3-yl)methyl)phenyl)-6,7-dihydro-5H-benzo[7]annulene-3-carboxylic acid] the same measures were 91% and 7000 pM.
Regarding `O=C(O)c1ccc2c(c1)CCCC(c1cccc(F)c1C(F)F)=C2c1ccc(CC2CN(CCCF)C2)cc1` [Example 296, 8-(2-(difluoromethyl)-3-fluorophenyl)-9-(4-((1-(3-fluoropropyl)azetidin-3-yl)methyl)phenyl)-6,7-dihydro-5H-benzo[7]annulene-3-carboxylic acid], the “% Degradation At 0.3 μM” value amounted to 91%. Moreover, the DC50 under setting [1] turned out to be 700 pM.
The corresponding values for `O=C(O)c1ccc2c(c1)CCCC(c1ccc(Cl)cc1Cl)=C2c1ccc(CC2(F)CN(CCCF)C2)cc1` [Example 46, 8-(2,4-dichlorophenyl)-9-(4-((3-fluoro-1-(3-fluoropropyl)azetidin-3-yl)methyl)phenyl)-6,7-dihydro-5H-benzo[7]annulene-3-carboxylic acid] are 88% and 600 pM.
With `O=C(O)c1c(F)cc2c(c1F)CCCC(c1ccccc1Cl)=C2c1ccc(CC2CN(CCCF)C2)cc1` [Example 224], the “% Degradation At 0.3 μM” value was determined as 82%. For the same compound, the DC50 under setting [1] came to 43000 pM.
Regarding `O=C(O)c1ccc2c(c1)CCCC(C1CC3CCC1C3)=C2c1ccc(CC2CN(CCCF)C2)cc1` (mixture of isomers) [Example 307, 8-(bicyclo[2.2.1]heptan-2-yl)-9-(4-((1-(3-fluoropropyl)azetidin-3-yl)methyl)phenyl)-6,7-dihydro-5H-benzo[7]annulene-3-carboxylic acid], the “% Degradation At 0.3 μM” value was found to be 84%. Under setting [1], the DC50 was determined as 400 pM.
